molecular target: Transient receptor potential cation channel subfamily V member 1 (Rattus norvegicus, UniProt O35433); test: Competition Binding Assay and Inhibition of Ca2+ Uptake Assay; details: pH 7.4; 37 °C
Method: Binding assay mixtures were set up and contained [3H] RTX, various concentrations of competing ligands, and rVR1-transfected CHO cells. Nonspecific binding was determined in the presence of 100 nM nonradioactive RTX. After the binding reaction, membrane-bound RTX was separated from the free by centrifugation, and the radioactivity was determined by scintillation counting. Equilibrium binding parameters (Ki, Bmax, and cooperativity) were determined by fitting the Hill equation to the measured values with the aid of the program Origin 6.0.

Chain of Transient receptor potential cation channel subfamily V member 1 (O35433 whole entry): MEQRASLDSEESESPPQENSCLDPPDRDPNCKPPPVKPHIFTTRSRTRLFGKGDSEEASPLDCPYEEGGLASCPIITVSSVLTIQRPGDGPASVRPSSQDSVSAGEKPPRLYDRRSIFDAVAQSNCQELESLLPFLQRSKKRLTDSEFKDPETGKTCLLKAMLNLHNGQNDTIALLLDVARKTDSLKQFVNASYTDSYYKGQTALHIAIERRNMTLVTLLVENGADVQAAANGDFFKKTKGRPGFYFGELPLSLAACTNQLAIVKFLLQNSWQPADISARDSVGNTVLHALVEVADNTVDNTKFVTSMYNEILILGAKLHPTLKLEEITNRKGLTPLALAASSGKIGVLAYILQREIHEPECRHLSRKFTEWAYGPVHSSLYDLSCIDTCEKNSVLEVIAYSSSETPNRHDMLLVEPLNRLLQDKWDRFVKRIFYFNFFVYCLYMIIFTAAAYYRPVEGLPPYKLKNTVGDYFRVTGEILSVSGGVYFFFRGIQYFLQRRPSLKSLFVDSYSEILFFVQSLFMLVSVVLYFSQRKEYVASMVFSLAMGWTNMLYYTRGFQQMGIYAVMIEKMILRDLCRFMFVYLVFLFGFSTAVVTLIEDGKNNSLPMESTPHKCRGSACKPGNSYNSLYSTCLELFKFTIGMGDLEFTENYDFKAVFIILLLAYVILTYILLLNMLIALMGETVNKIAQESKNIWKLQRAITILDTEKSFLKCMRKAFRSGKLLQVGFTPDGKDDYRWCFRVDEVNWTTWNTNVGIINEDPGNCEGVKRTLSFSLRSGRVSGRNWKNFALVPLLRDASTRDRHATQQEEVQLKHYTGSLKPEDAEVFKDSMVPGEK

SMILES	Ki [µM]
C[C@H](C(=O)NC[C@@H](COC(=O)C(C)(C)C)Cc1ccccc1)c1ccc(NS(C)(=O)=O)c(F)c1 [(2S)-2-benzyl-3-[(2S)-2-(3-fluoro-4-methanesulfonamidophenyl)propanamido]propyl 2,2-dimethylpropanoate]	0.01
C[C@H](C(=O)NC[C@H](COC(=O)C(C)(C)C)Cc1ccccc1)c1ccc(NS(C)(=O)=O)c(F)c1 [(2R)-2-benzyl-3-[(2S)-2-(3-fluoro-4-methanesulfonamidophenyl)propanamido]propyl 2,2-dimethylpropanoate]	0.00856
CC(C)(C)C(=O)OCC(CNC(=O)Cc1ccc(NS(C)(=O)=O)c(F)c1)Cc1ccc(C(C)(C)C)cc1 (stereo not drawn)	0.44
Cc1ccc(CC(CNC(=O)C(C)(C)c2ccc(NS(C)(=O)=O)cc2)COC(=O)C(C)(C)C)cc1C (stereo not drawn) [2-[(3,4-dimethylphenyl)methyl]-3-[2-(4-methanesulfonamidophenyl)-2-methylpropanamido]propyl 2,2-dimethylpropanoate]	0.104
C[C@H](C(=O)NC[C@H](COC(=O)C(C)(C)C)Cc1ccc(C(C)(C)C)cc1)c1ccc(NS(C)(=O)=O)c(F)c1 [(2R)-2-[(4-tert-butylphenyl)methyl]-3-[(2S)-2-(3-fluoro-4-methanesulfonamidophenyl)propanamido]propyl 2,2-dimethylpropanoate]	0.00058
Cc1ccc(CC(CNC(=O)C(C)c2ccc(NS(C)(=O)=O)c(Cl)c2)COC(=O)C(C)(C)C)cc1C (stereo not drawn) [3-[2-(3-chloro-4-methanesulfonamidophenyl)propanamido]-2-[(3,4-dimethylphenyl)methyl]propyl 2,2-dimethylpropanoate]	0.036
CC(C(=O)NCC(COC(=O)C(C)(C)C)Cc1ccc(C(C)(C)C)cc1)c1ccc(NS(C)(=O)=O)cc1 (stereo not drawn) [2-[(4-tert-butylphenyl)methyl]-3-[2-(4-methanesulfonamidophenyl)propanamido]propyl 2,2-dimethylpropanoate]	0.052
Cc1ccc(CC(CNC(=O)C2(c3ccc(NS(C)(=O)=O)cc3)CC2)COC(=O)C(C)(C)C)cc1C (stereo not drawn) [2-[(3,4-dimethylphenyl)methyl]-3-{[1-(4-methanesulfonamidophenyl)cyclopropyl]formamido}propyl 2,2-dimethylpropanoate]	0.197
COc1cc(C(C)(C)C(=O)NCC(COC(=O)C(C)(C)C)Cc2ccc(C)c(C)c2)ccc1NS(C)(=O)=O (stereo not drawn) [2-[(3,4-dimethylphenyl)methyl]-3-[2-(4-methanesulfonamido-3-methoxyphenyl)-2-methylpropanamido]propyl 2,2-dimethylpropanoate]	0.133
C=C(C)[C@]12C[C@@H](C)[C@@]34OC(Cc5ccccc5)(O[C@@H]1[C@@H]3C=C(COC(=O)Cc1cc(I)c(O)c(OC)c1)C[C@]1(O)C(=O)C(C)=C[C@@H]41)O2 [[(1R,2R,6R,10S,11R,15R,17R)-13-benzyl-6-hydroxy-4,17-dimethyl-5-oxo-15-(prop-1-en-2-yl)-12,14,18-trioxapentacyclo[11.4.1.0^{1,10}.0^{2,6}.0^{11,15}]octadeca-3,8-dien-8-yl]methyl 2-(4-hydroxy-3-iodo-5-methoxyphenyl)acetate]	0.0122
C[C@@H](C(=O)NC[C@@H](COC(=O)C(C)(C)C)Cc1ccc(C(C)(C)C)cc1)c1ccc(NS(C)(=O)=O)c(F)c1 [(2S)-2-[(4-tert-butylphenyl)methyl]-3-[(2R)-2-(3-fluoro-4-methanesulfonamidophenyl)propanamido]propyl 2,2-dimethylpropanoate]	0.142
CC(C(=O)NCC(COC(=O)C(C)(C)C)Cc1ccc(C(C)(C)C)cc1)c1ccc(NS(C)(=O)=O)c(F)c1 (stereo not drawn) [diastereomeric mixture]	0.00324
CC(C(=O)NCC(COC(=O)C(C)(C)C)Cc1ccc(C(C)(C)C)cc1)c1ccc(NS(C)(=O)=O)c(Cl)c1 (stereo not drawn) [2-[(4-tert-butylphenyl)methyl]-3-[2-(3-chloro-4-methanesulfonamidophenyl)propanamido]propyl 2,2-dimethylpropanoate]	0.0123
Cc1ccc(CC(CNC(=O)C2(c3ccc(NS(C)(=O)=O)c(F)c3)CC2)COC(=O)C(C)(C)C)cc1C (stereo not drawn) [2-[(3,4-dimethylphenyl)methyl]-3-{[1-(3-fluoro-4-methanesulfonamidophenyl)cyclopropyl]formamido}propyl 2,2-dimethylpropanoate]	0.567
C[C@@H](C(=O)NC[C@@H](COC(=O)C(C)(C)C)Cc1ccccc1)c1ccc(NS(C)(=O)=O)c(F)c1 [(2S)-2-benzyl-3-[(2R)-2-(3-fluoro-4-methanesulfonamidophenyl)propanamido]propyl 2,2-dimethylpropanoate]	0.205
Cc1ccc(CC(CNC(=O)C(C)(C)c2ccc(NS(C)(=O)=O)c(F)c2)COC(=O)C(C)(C)C)cc1C (stereo not drawn) [2-[(3,4-dimethylphenyl)methyl]-3-[2-(3-fluoro-4-methanesulfonamidophenyl)-2-methylpropanamido]propyl 2,2-dimethylpropanoate]	0.065
Cc1ccc(CC(CNC(=S)NCc2ccc(NS(C)(=O)=O)c(F)c2)COC(=O)C(C)(C)C)cc1C (stereo not drawn)	0.0078
C[C@H](C(=O)NC[C@@H](COC(=O)C(C)(C)C)Cc1ccc(C(C)(C)C)cc1)c1ccc(NS(C)(=O)=O)c(F)c1 [(2S)-2-[(4-tert-butylphenyl)methyl]-3-[(2S)-2-(3-fluoro-4-methanesulfonamidophenyl)propanamido]propyl 2,2-dimethylpropanoate]	0.0109
C[C@@H](C(=O)NC[C@H](COC(=O)C(C)(C)C)Cc1ccc(C(C)(C)C)cc1)c1ccc(NS(C)(=O)=O)c(F)c1 [(2R)-2-[(4-tert-butylphenyl)methyl]-3-[(2R)-2-(3-fluoro-4-methanesulfonamidophenyl)propanamido]propyl 2,2-dimethylpropanoate]	0.0303
Cc1ccc(CC(CNC(=O)C(C)c2ccc(NS(C)(=O)=O)c(F)c2)COC(=O)C(C)(C)C)cc1C (stereo not drawn) [2-[(3,4-dimethylphenyl)methyl]-3-[2-(3-fluoro-4-methanesulfonamidophenyl)propanamido]propyl 2,2-dimethylpropanoate]	0.0108
COc1cc(C(C)C(=O)NCC(COC(=O)C(C)(C)C)Cc2ccc(C)c(C)c2)ccc1NS(C)(=O)=O (stereo not drawn) [2-[(3,4-dimethylphenyl)methyl]-3-[2-(4-methanesulfonamido-3-methoxyphenyl)propanamido]propyl 2,2-dimethylpropanoate]	0.0136
CC(C)(C)C(=O)OCC(CNC(=S)NCc1ccc(NS(C)(=O)=O)c(F)c1)Cc1ccc(C(C)(C)C)cc1 (stereo not drawn)	0.052
C[C@H](C(=O)NC[C@@H](COC(=O)C(C)(C)C)Cc1ccc(C(C)(C)C)cc1)c1ccc(NS(C)(=O)=O)c(Cl)c1 [(2S)-2-[(4-tert-butylphenyl)methyl]-3-[(2S)-2-(3-chloro-4-methanesulfonamidophenyl)propanamido]propyl 2,2-dimethylpropanoate]	0.0121
COc1cc(C2(C(=O)NCC(COC(=O)C(C)(C)C)Cc3ccc(C)c(C)c3)CC2)ccc1NS(C)(=O)=O (stereo not drawn) [2-[(3,4-dimethylphenyl)methyl]-3-{[1-(4-methanesulfonamido-3-methoxyphenyl)cyclopropyl]formamido}propyl 2,2-dimethylpropanoate]	0.118
Cc1ccc(CC(CNC(=O)C(C)c2ccc(NS(C)(=O)=O)cc2)COC(=O)C(C)(C)C)cc1C (stereo not drawn) [2-[(3,4-dimethylphenyl)methyl]-3-[2-(4-methanesulfonamidophenyl)propanamido]propyl 2,2-dimethylpropanoate]	0.038
C[C@H](C(=O)NC[C@H](COC(=O)C(C)(C)C)Cc1ccc(C(C)(C)C)cc1)c1ccc(NS(C)(=O)=O)c(Cl)c1 [(2R)-2-[(4-tert-butylphenyl)methyl]-3-[(2S)-2-(3-chloro-4-methanesulfonamidophenyl)propanamido]propyl 2,2-dimethylpropanoate]	0.0052
C[C@@H](C(=O)NC[C@H](COC(=O)C(C)(C)C)Cc1ccccc1)c1ccc(NS(C)(=O)=O)c(F)c1 [(2R)-2-benzyl-3-[(2R)-2-(3-fluoro-4-methanesulfonamidophenyl)propanamido]propyl 2,2-dimethylpropanoate]	0.098

same assay, conditions: pH 7.4; 37 °C; read-out: Ki

SMILES	Ki [µM]
C=C(C)[C@]12C[C@@H](C)[C@@]34OC(Cc5ccccc5)(O[C@@H]1[C@@H]3C=C(COC(=O)Cc1cc(I)c(O)c(OC)c1)C[C@]1(O)C(=O)C(C)=C[C@@H]41)O2 [[(1R,2R,6R,10S,11R,15R,17R)-13-benzyl-6-hydroxy-4,17-dimethyl-5-oxo-15-(prop-1-en-2-yl)-12,14,18-trioxapentacyclo[11.4.1.0^{1,10}.0^{2,6}.0^{11,15}]octadeca-3,8-dien-8-yl]methyl 2-(4-hydroxy-3-iodo-5-methoxyphenyl)acetate]	0.00061

From BindingDB's records for doi:10.1021/jm701049p (Seoul National University, 2008)
